In PMC4794652, “Identification of E-cadherin signature motifs functioning as cleavage sites for Helicobacter pylori HtrA” (Scientific Reports, 2016):
Entries after “also recorded” stand apart in the source; their conditions may differ. No end group written: not given here.

Legend:
H. pylori HtrA [1] = assay: In vitro HtrA-mediated E-cadherin (rCdh1) cleavage, inhibition by peptides (Western blot); type: biochemical
Method: (§1) Proteins were separated by SDS PAGE and analysed by Western blot using specific antibodies against HtrA[21], the extracellular domains EC5 (H108, Santa Cruz Biotechnology and ab40772, Abcam), EC1 (SHE78-7, Invitrogen) and EC2 (HecD1, Calbiochem) of E-cadherin, or the intracellular domain (24E10, Cell Signaling). His6-tagged proteins were analysed using an anti-His5-antibody (Qiagen). GAPDH (Cell Signaling) and β-actin (Sigma) were detected as loading controls. Where indicated, signals of protein bands were quantified using the ImageLab software (BioRad). Graphical presentation and statistical evaluations (Student’s t-test) were performed with GraphPad Prism 5 and p-values of ***p ≤ 0.001, **p ≤ 0.01 and *p ≤ 0.05 were considered statistically significant.
Purification of recombinant H. pylori HtrA and in vitro cleavage assays have been described elsewhere. Briefly, 200 ng recombinant HtrA was incubated with 50 ng recombinant hCdh1 (R&D Systems) in 50 mM HEPES pH 7.4 and 100 μM EDTA for 16 h (or for the indicated time periods) at 37 °C. Where indicated, test peptides were added.

H. pylori HtrA [2] = assay: Competition experiment: interference with P1-mediated HtrA inhibition (rCdh1 cleavage, Western blot); type: biochemical; settings: 100 μM peptides, 50 ng rCdh1, 200 ng rHtrA, 16 h, 37 °C, in words (Fig. S4B)
Method: as §1
Purification of recombinant H. pylori HtrA and in vitro cleavage assays have been described elsewhere. […]
Figure S4. […] (A) Synthesized peptides based on the most frequent detected peptide during label-free mass spectrometry-based proteomic analysis. […] The cleavage fragments were analyzed by Western blot and detected using an antibody against the EC5. (D) Quantitative analysis of the relative amount of β-actin in whole cell lysates (WCL) of the H. pylor i-infected cells by blot densitometry from […]
1 Niessen, C. M. & Gumbiner, B. M. Cadherin-mediated cell sorting not determined by binding or […]

[3] = test system: HtrA wild-type (H. pylori); assay: Direct peptide binding to immobilised HtrA by surface plasmon resonance (SPR); settings: for concentration-dependent SPR binding to HtrA, C-terminal carboxyl vs amide / direct binding to immobilised HtrA (SPR response): SPR-2, 25 °C, 25 μl/min; for concentration-dependent SPR binding to HtrA, C-terminal carboxyl vs amide: HBS-P, in words (Fig. 4D, S3B, S3C); for direct binding to immobilised HtrA (SPR response): HBS-P (10 mM HEPES-buffered saline, 150 mM NaCl, 0.005% Tween), against significance threshold, in words (Fig. 4C)
Method: Affinity studies were performed on a Sierra Sensors GmbH SPR-2 instrument. Measurements were performed at 25 °C with a flow rate of 25 μl/min. Carboxymethyl dextran matrix high-density sensor chips (SPR-2 Affinity Sensor HC, batch 10-BC-04-154-A, Sierra Sensors) were used to immobilise 20 μg/ml HtrA wild-type (wt) in 10 mM HEPES (HEPES buffer 1 M solution, pH 7.3, Fisher Scientific) by adding 198 μl amine coupling with an activation solution (200 mM N-ethyl-3-(3-dimethylaminopropyl)-carbodiimide [EDC] and 50 mM N-hydroxysuccinimide [NHS]). The SPR sensor surface was loaded with 100 μl protein and subsequently treated by injecting 192 μl of 1 M ethanolamine at pH 8.5 for inactivation of excess coupling groups. HBS-P (10 mM HEPES-buffered saline, 150 mM NaCl, 0.005% Tween) served as running and sample buffer for peptide measurements. Peptide samples were directly dissolved in HBS-P buffer. The experiments with the non-peptidic compounds were performed utilising HBS-PD running buffer (10 mM HEPES-buffered saline with 3% DMSO, 150 mM NaCl, 0.005% Tween).

[4] = test system: HtrA in H. pylori infections of several other cell lines; assay: Inhibition of hCdh1 NTF formation in H. pylori infections of several other cell lines; type: cell-based; settings: different infection doses, data not shown, in words
Source text: (§2) The human gastric adenocarcinoma cell line AGS is E-cadherin-negative and was derived from an adenocarcinoma of the stomach of a person (ECACC, 89090402). AGS cells expressing hCdh1 were generated by transfection using a plasmid containing E-cadherin wild-type cDNA[50] which has been kindly provided by Rohan D. Teasdale (University of Queensland, Australia). E-cadherin-positive MKN-28 cells (JCRB, 0253, obtained from the Max-Planck Institute for Infection Biology) were originally described as being isolated from a moderately differentiated tubular adenocarcinoma and have been frequently used to study E-cadherin-dependent processes. The gastric epithelial NCI-N87 cells (ATCC, CRL-5822) were included as an additional E-cadherin-expressing cell line[24] and were derived from metastasis in the liver. All cells have been described previously[24][51] and were grown in RPMI 1640 medium containing 4 mM glutamine (Invitrogen) and 10% FCS (Sigma) in a humidified atmosphere at 37 °C. […] Adherence of H. pylori was quantitated in a cfu (colony-forming unit) assay. […] The number of cfu was determined by growth on agar plates for 72 h. […] The number of transmigrated bacteria was determined as cfu by taking aliquots from the basal chambers. […]

[5] = test system: H. pylori transmigration across MKN-28 cells; assay: Transmigration of H. pylori across polarised MKN-28 cell monolayer (transwell filter assay); type: cell-based, H. pylori; human (MKN-28 cells); settings: 100 μM, 200 μM, 500 μM P1; MOI 50; cfu from basal chamber; n = 3, mean ± std dev; in words (Fig. 5C)
Source text: as §2

[6] = test system: HtrA in H. pylori-infected AGS cells; assay: Inhibition of HtrA in H. pylori-infected AGS cells transfected with hCdh1 (formation of 90 kDa hCdh1 NTF fragment); type: cell-based, H. pylori; human (AGS cells); settings: transfected AGS cells expressing hCdh1, H. pylori infection 16 h, 50 μl supernatant; blot densitometry, three independent experiments; in words (Fig. 5B)
Method: Figure 5 Inhibition of HtrA-mediated E-cadherin cleavage. (A) 50 ng rCdh1 was incubated with 200 ng HtrA and indicated concentrations of P1. rCdh1 fragments and HtrA were detected using specific antibodies. (B) Transfected AGS cells expressing hCdh1 were infected with H. pylori (Hp) or left untreated (–) for 16 h. 50 μl aliquots of the supernatants were separated by SDS PAGE and blotted onto membranes. The 90 kDa hCdh1^NTF fragment was detected by Western blots. The relative amount of hCdh1^NTF fragment was quantified by blot densitometry from three independent experiments. […] (C) Polarised MKN-28 cells grown on transwell filters were infected with H. pylori in the presence and absence of peptide P1 at different concentrations (100 μM, 200 μM, 500 μM). Bacteria that had transmigrated across the MKN-28 monolayer on the filter were counted (n = 3, mean ± std dev).
The human gastric adenocarcinoma cell line AGS is E-cadherin-negative and was derived from an adenocarcinoma of the stomach of a person (ECACC, 89090402). […] Adherence of H. pylori was quantitated in a cfu (colony-forming unit) assay. […] The number of cfu was determined by growth on agar plates for 72 h. […] The number of transmigrated bacteria was determined as cfu by taking aliquots from the basal chambers. […]

For “TGTLLLI [Peptide P1_NT, short peptide P1_NT, contains the hydrophobic amino acid stretch TGTLLLI]”, the “blocking of HtrA-induced E-cadherin cleavage, 7-residue N-terminal peptides” value (H. pylori HtrA [1]; 100 μM peptide, 50 ng rCdh1, 200 ng rHtrA, 16 h, 37 °C, in words (Fig. S4B)) was “None of these peptides blocked HtrA-induced E-cadherin cleavage” and the “interference with P1-mediated HtrA inhibition” value (H. pylori HtrA [2]) was “None of these peptides blocked HtrA-induced E-cadherin cleavage or interfered with P1-mediated HtrA inhibition”.
“P1-NH2: P1 with a C-terminal alpha-amide (TGTLLLILSDVNDNAPIPEPR-NH2) [Peptide P1-NH2]” was tested, and the “concentration-dependent SPR binding to HtrA, C-terminal carboxyl vs amide” value [3] was “concentration-dependent binding”.
For NDNAPIPEPR [Peptide P5], the “direct binding to immobilised HtrA (SPR response)” value [3] was “positive binding response above the significance threshold”.
For TGTLLLILSDVNDNAPIPEPR [Peptide P1], the “inhibition of in vitro HtrA-mediated E-cadherin cleavage” value (H. pylori HtrA [1]; 100 μM peptide, 200 ng HtrA, 50 ng rCdh1, 50 mM HEPES pH 7.4, 100 μM EDTA, 16 h, 37 °C, Western blot, in words (Fig. 4A,B)) was “effectively inhibited in vitro HtrA-mediated E-cadherin cleavage; also recorded: efficiently inhibited HtrA-mediated E-cadherin cleavage”, the “inhibition of HtrA-mediated rCdh1 cleavage, concentration dependence” value (H. pylori HtrA [1]; indicated concentrations of P1, 50 ng rCdh1, 200 ng HtrA, Western blot, in words (Fig. 5A)) was “strongly inhibited HtrA-mediated rCdh1 cleavage in a concentration-dependent manner” and the “inhibition of HtrA-mediated E-cadherin cleavage in vitro (summary)” value (H. pylori HtrA [1]; summary statement without concentration, in words) was “efficiently blocked E-cadherin cleavage in vitro”. The “decrease in formation of hCdh1 NTF in other cell lines and infection doses” value [4] was “This effect was also observed in H. pylori infections of several other cell lines and at different infection doses”, the “direct binding to immobilised HtrA (SPR response)” value [3] was “strong binding” and the “concentration-dependent SPR binding to HtrA, C-terminal carboxyl vs amide” value ([3]; listed as P1-OH) was “concentration-dependent binding; also recorded: stronger SPR signals; also recorded: greater SPR response than its amide counterpart”. The “binding specificity for HtrA” value ([3]; in words) was “binds with high specificity”, the “H. pylori transmigration across polarised MKN-28 monolayer” value [5] was “strong concentration-dependent reduction of H. pylori transmigration; also recorded: inhibition of H. pylori transmigration” and the “formation of hCdh1 NTF fragment (bioactivity in H. pylori-infected AGS cells)” value [6] was “significant dose-dependent decrease in the formation of the hCdh1^NTF; also recorded: weaker, but still significant at higher concentrations”.
